Assays:
Assay type in all cases: cell-based
[1] = biological target: T1, Peroxisome proliferator-activated receptor alpha (Mus musculus) (UniProt P23204); experiment: Agonist activity at Gal4-fused mouse PPAR-alpha ligand binding domain expressed in CHO-K1 cells assessed as receptor transactivation incubated for 24 to 48 hrs by luciferase reporter gene assay relative to control; conditions: time lower 24.0 hrs, time upper […]
T1 sequence (whole entry): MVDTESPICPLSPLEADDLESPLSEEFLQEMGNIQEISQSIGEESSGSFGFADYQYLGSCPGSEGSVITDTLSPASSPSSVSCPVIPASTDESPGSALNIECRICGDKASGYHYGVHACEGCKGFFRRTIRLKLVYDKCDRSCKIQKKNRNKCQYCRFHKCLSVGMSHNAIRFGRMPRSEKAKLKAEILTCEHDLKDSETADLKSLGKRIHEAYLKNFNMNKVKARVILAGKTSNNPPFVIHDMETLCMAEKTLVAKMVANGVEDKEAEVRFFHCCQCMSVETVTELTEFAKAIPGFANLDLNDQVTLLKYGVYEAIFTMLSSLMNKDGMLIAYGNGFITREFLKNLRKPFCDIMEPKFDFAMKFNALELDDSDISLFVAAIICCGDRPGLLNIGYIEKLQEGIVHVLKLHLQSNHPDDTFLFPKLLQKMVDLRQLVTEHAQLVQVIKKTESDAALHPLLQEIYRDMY

[2] = biological target: T2, Peroxisome proliferator-activated receptor alpha (Homo sapiens) (UniProt Q07869); experiment: Agonist activity at Gal4-fused human PPAR-alpha ligand binding domain expressed in CHO-K1 cells assessed as receptor transactivation incubated for 24 to 48 hrs by luciferase reporter gene assay relative to control; conditions: time lower 24.0 hrs, time upper […]
T2 sequence (whole entry): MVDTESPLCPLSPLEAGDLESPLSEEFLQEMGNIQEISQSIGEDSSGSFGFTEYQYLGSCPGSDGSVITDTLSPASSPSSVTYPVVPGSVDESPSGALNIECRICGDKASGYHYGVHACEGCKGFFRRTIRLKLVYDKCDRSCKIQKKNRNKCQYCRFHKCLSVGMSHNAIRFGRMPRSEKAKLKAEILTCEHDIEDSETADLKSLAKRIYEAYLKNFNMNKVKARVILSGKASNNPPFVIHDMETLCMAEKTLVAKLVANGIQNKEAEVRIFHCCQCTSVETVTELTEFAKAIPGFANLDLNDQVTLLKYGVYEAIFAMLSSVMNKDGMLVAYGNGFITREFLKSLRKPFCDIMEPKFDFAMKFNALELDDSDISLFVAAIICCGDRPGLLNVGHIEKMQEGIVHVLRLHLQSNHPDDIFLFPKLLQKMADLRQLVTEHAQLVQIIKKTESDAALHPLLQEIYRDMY

[3] = biological target: T3, Peroxisome proliferator-activated receptor alpha (Homo sapiens, UniProt Q07869); experiment: Agonist activity at Gal4-fused human PPAR-alpha ligand binding domain expressed in CHO-K1 cells assessed as receptor transactivation incubated for 24 to 48 hrs by luciferase reporter gene assay
T3 sequence (Q07869 whole entry): T2 sequence (whole entry)

[4] = biological target: T4, Peroxisome proliferator-activated receptor delta (Homo sapiens, UniProt Q03181); experiment: Agonist activity at Gal4-fused human PPAR-delta ligand binding domain expressed in CHO-K1 cells assessed as receptor transactivation incubated for 24 to 48 hrs by luciferase reporter gene assay
T4 sequence (Q03181 whole entry): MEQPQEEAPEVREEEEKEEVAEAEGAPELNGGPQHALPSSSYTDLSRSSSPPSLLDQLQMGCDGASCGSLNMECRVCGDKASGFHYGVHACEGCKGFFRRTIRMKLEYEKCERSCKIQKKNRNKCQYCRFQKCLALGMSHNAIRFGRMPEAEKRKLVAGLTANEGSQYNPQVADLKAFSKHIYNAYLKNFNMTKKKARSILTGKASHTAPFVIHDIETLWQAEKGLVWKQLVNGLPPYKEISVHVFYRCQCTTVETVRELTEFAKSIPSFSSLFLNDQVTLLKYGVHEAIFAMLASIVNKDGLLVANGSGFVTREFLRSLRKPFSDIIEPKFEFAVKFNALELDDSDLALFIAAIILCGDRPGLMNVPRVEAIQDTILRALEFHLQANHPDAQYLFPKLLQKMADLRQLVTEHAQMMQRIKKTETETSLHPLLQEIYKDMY

[5] = biological target: T5, Peroxisome proliferator-activated receptor delta (Mus musculus, UniProt P35396); experiment: Agonist activity at Gal4-fused mouse PPAR-delta ligand binding domain expressed in CHO-K1 cells assessed as receptor transactivation incubated for 24 to 48 hrs by luciferase reporter gene assay
T5 sequence (P35396 whole entry): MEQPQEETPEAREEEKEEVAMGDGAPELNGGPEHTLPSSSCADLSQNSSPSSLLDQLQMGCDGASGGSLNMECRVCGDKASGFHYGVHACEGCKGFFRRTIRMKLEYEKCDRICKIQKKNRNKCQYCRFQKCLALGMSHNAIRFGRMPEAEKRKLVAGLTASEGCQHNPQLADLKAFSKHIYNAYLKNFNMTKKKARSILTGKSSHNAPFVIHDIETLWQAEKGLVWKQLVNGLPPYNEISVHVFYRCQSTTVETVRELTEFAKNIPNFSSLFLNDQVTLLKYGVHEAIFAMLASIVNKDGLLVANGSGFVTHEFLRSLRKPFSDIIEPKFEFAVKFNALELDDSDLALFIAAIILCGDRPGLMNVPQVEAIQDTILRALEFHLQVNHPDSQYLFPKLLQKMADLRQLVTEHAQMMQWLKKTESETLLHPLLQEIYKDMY

[6] = biological target: T6, Peroxisome proliferator-activated receptor gamma (Mus musculus, UniProt P37238); experiment: Agonist activity at Gal4-fused mouse PPAR-gamma ligand binding domain expressed in CHO-K1 cells assessed as receptor transactivation incubated for 24 to 48 hrs by luciferase reporter gene assay
T6 sequence (P37238 whole entry): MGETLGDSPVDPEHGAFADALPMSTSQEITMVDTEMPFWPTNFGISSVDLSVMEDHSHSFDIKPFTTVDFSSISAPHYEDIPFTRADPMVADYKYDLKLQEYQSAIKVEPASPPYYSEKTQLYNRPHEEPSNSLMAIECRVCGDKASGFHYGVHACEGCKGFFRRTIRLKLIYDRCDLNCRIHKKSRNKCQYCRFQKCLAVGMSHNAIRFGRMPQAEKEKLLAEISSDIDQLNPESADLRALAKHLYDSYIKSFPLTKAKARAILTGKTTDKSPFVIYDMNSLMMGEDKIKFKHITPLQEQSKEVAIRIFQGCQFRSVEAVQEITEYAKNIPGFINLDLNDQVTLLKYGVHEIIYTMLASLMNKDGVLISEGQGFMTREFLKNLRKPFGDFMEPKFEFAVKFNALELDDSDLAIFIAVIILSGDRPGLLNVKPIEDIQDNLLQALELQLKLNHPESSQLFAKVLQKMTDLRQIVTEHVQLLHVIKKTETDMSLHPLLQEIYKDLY

Row | Emax [1] | Emax [2] | EC50 [3] | EC50 [4] | EC50 [5] | EC50 [6] | Compound
1 | 1.7% | 6.3% | 1600 nM | 6.2 nM | 24 nM | 1800 nM | Cc1cc(CC(=O)O)cc(CN2CCN(c3nc4ccc(C(F)(F)F)cc4s3)[C@H](C)C2)c1
2 | 9% | 6.3% | 1800 nM | 10 nM | 39 nM | 2700 nM | Cc1cc(CC(=O)O)cc(CN2CCN(c3nc4ccc(C(F)(F)F)cc4s3)[C@@H](C)C2)c1

From ChEMBL document CHEMBL5260859, “Discovery and structure-activity relationship study of 2-piperazinyl-benzothiazole derivatives as potent and selective PPARδ agonists” (Bioorg Med Chem, 2023)
